Earlier results as cited in article PMC4810081, “Venetoclax (ABT-199) Might Act as a Perpetrator in Pharmacokinetic Drug–Drug Interactions” (Pharmaceutics, 2016).

Target: T1, BCRP (Homo sapiens, UniProt Q9UNQ0)
T1 construct: expressed in transfected cells; host or cells: MDCKII-BCRP (gift of A. H. Schinkel and P. Borst)
Set-up: method as in PMID 20222053
Conditions: control compound; read-out: IC50 BCRP inhibition, control compound; cited from earlier work

T1 sequence (Q9UNQ0 whole entry): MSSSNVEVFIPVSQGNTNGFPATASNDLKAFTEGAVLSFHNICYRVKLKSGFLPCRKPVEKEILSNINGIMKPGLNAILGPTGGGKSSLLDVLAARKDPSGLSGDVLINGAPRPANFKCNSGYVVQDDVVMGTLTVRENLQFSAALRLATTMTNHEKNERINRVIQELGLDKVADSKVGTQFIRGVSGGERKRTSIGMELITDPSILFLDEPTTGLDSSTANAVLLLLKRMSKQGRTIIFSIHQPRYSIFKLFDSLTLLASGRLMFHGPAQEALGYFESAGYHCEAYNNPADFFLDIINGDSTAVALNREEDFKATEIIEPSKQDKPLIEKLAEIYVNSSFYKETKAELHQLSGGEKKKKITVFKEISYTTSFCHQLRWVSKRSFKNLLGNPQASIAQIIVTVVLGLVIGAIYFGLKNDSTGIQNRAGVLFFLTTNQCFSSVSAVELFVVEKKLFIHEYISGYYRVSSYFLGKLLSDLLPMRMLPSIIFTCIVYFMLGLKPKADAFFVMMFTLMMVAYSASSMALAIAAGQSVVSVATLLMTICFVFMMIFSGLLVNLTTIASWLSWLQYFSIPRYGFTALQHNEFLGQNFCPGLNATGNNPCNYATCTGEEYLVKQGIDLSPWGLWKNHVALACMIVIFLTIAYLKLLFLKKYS

Structure (SMILES): COc1ccc2c3c([nH]c2c1)[C@H](C=C(C)C)N1C(=O)[C@@H]2CCCN2C(=O)[C@@H]1C3 [FTC, fumitremorgin C]
- IC50: 700 ± 300 nM
